Tests used:
RAW264.7 [1] = assay: Anti-inflammatory activity in mouse RAW264.7 cells assessed as inhibition of LPS-induced TNFalpha production incubated for 1 hr by EIA relative to control; assay type: functional
RAW264.7 [2] = assay: Anti-inflammatory activity in mouse RAW264.7 cells assessed as inhibition of LPS-induced IL-6 production incubated for 1 hr by EIA relative to control; assay type: functional
[3] = biological target: T1, Prostaglandin G/H synthase 1 (Ovis aries, UniProt P05979); assay: Inhibition of ovine COX-1 at 1 uM
T1 sequence (P05979 whole entry): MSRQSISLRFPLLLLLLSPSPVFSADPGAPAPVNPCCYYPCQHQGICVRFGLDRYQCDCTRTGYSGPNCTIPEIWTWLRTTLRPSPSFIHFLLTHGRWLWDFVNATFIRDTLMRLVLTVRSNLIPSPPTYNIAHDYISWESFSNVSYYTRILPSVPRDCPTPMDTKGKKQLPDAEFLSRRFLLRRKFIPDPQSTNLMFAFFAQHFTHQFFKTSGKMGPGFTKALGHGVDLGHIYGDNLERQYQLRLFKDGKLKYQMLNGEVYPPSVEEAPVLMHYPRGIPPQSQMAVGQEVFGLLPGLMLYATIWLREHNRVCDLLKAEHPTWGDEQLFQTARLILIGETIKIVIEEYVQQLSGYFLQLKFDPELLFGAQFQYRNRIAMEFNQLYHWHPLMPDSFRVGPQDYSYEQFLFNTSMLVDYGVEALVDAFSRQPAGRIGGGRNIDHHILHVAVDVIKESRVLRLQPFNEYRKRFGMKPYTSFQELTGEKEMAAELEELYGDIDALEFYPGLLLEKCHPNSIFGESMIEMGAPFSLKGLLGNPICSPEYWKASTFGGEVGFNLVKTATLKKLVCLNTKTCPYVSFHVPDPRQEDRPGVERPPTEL

[4] = biological target: T2, Polyunsaturated fatty acid lipoxygenase ALOX15 (Homo sapiens, UniProt P16050); assay: Inhibition of LOX (unknown origin) at 1 uM
T2 sequence (P16050 whole entry): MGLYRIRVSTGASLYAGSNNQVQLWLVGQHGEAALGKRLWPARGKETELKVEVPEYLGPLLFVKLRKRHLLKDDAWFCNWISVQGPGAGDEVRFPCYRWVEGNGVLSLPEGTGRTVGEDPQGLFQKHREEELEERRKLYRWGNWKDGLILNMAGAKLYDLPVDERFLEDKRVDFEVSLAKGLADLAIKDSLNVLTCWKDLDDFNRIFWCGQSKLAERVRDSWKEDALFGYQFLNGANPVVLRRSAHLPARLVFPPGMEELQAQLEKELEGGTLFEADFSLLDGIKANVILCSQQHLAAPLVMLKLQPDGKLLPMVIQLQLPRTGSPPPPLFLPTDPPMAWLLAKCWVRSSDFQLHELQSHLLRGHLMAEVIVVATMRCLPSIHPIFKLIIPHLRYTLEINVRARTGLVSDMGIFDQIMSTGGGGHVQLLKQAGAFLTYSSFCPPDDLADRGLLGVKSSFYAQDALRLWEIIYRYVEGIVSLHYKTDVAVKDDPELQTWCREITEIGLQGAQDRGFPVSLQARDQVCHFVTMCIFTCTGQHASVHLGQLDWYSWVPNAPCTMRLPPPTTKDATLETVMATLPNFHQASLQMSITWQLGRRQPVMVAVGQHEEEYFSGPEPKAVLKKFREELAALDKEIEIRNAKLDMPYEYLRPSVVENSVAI

[5] = biological target: T3, Prostaglandin G/H synthase 2 (Homo sapiens, UniProt P35354); assay: Inhibition of human recombinant COX-2 at 1 uM
T3 sequence (P35354 whole entry): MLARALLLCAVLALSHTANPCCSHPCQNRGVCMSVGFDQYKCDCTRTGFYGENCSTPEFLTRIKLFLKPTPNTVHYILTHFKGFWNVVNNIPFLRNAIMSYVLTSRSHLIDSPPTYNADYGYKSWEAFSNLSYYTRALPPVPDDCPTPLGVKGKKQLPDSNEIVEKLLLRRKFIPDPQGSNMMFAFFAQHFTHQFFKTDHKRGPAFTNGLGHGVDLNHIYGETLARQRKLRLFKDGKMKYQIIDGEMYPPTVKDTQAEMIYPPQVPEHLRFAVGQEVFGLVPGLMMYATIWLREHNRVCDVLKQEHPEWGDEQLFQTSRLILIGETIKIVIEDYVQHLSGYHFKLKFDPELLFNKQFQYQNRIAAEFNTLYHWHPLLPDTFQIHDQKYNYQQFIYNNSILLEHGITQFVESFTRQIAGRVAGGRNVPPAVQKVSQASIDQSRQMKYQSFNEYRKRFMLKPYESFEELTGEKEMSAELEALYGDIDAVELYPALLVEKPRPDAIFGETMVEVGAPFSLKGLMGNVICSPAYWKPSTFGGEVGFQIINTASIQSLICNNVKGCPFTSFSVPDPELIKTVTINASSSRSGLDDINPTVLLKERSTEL

[6] = biological target: T1, Prostaglandin G/H synthase 1; assay: Inhibition of ovine COX-1 by EIA method
Rattus norvegicus = assay: Anti-inflammatory activity in Carrageenan-induced paw edema in Wistar albino rat assessed as inhibition of paw edema measured after 3 hr relative to control; assay type: functional; design: Activity: scale not given: the % may be the effect or the level left
RAW264.7 [7] = assay: Anti-inflammatory activity in mouse RAW264.7 cells assessed as LPS-induced reduction in decreased […] level of IL-1beta measured after 24 hrs; assay type: functional
THP-1 = assay: Anti-inflammatory activity in human THP-1 cells assessed as inhibition in IL-1beta release at 30 uM relative to control; assay type: functional; design: scale not given: the % may be the effect or the level left
[8] = biological target: T4, Bifunctional epoxide hydrolase 2 (Homo sapiens, UniProt P34913); assay: Inhibition of human recombinant sEH
T4 sequence (P34913 whole entry): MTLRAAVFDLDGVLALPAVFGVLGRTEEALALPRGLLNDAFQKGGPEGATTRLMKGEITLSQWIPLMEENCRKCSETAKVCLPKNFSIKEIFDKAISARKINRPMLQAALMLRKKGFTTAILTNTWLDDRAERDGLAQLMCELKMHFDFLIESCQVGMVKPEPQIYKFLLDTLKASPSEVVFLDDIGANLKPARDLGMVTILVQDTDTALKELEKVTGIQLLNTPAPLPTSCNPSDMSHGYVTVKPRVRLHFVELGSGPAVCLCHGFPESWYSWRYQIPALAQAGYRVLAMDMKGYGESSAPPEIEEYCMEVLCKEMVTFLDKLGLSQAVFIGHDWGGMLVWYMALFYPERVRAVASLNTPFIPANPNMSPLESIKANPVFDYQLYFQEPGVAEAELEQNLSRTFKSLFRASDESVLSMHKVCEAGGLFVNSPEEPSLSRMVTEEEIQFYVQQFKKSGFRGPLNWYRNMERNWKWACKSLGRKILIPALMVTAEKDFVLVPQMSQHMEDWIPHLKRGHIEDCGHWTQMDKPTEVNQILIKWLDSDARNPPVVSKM

Mus musculus = assay: Anti-inflammatory activity against Carrageenan-induced paw edema in mouse model assessed as inhibition of edema at 100 mg/kg measured after 3 hrs relative to control; assay type: functional; design: scale not given: the % may be the effect or the level left

COc1ccc(-c2nc3c(C(N)=O)cccc3[nH]2)cc1
inhibition (INH) (RAW264.7 [1]): 91% | inhibition (INH) (RAW264.7 [2]): 91% | IC50 [3]: 0.98 µM | IC50 [4]: 9.51 µM | IC50 [5]: 11.6 µM

COc1c2occc2c(OC)c2c(C)c(/C(=N/c3cc(N4CCNCC4)nc(N4CCNCC4)n3)N3CCNCC3)oc12
IC50 [6]: 4.15 µM | Activity (Rattus norvegicus): 68% | Activity (RAW264.7 [7]): 30 pg/mL

c1cc2[nH]c(-c3cscn3)nc2cn1
Activity (THP-1): 40%

O=C(O)c1ccc(CSc2nc3cc(F)c(-c4ncn[nH]4)cc3[nH]2)cc1
IC50 [8]: 0.7 µM | Activity (Mus musculus): 66.3%

Reference: ChEMBL document CHEMBL5233249, “Recent advancements in the development of heterocyclic anti-inflammatory agents” (Eur J Med Chem, 2020)
